# PubChem BioAssay (NCI)
#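 Where inhibition never reached the appropriate level, the endpoint shown equals the highest concentration tested. Otherwise, values were interpolated linearly from a five-concentration, 48-hour dose response in 96-well plates. The concentration for 50% growth inhibition is given as GI50. The concentration for full growth arrest is given as TGI.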
# Columns and labels:
# Assay in all cases: DTP human tumour cell line panel, 48 h
# SF-295 CNS = system: SF-295 CNS
# SK-MEL-28 melanoma = system: SK-MEL-28 melanoma
# NCI-H226 lung = system: NCI-H226 lung
# ACHN renal = system: ACHN renal
# TK-10 renal = system: TK-10 renal
# MOLT-4 leukemia = system: MOLT-4 leukemia
# MCF7 breast = system: MCF7 breast
# MALME-3M melanoma = system: MALME-3M melanoma
# LOX IMVI melanoma = system: LOX IMVI melanoma
# M14 melanoma = system: M14 melanoma
# KM12 colon = system: KM12 colon
# UACC-62 melanoma = system: UACC-62 melanoma
# OVCAR-4 ovarian = system: OVCAR-4 ovarian
# HL-60(TB) leukemia = system: HL-60(TB) leukemia
# CCRF-CEM leukemia = system: CCRF-CEM leukemia
# MDA-MB-435 = system: MDA-MB-435
# 786-0 renal = system: 786-0 renal
# SF-539 CNS = system: SF-539 CNS
# NCI-H522 lung = system: NCI-H522 lung
# MDA-MB-231 breast = system: MDA-MB-231 breast
# HS 578T breast = system: HS 578T breast
# CAKI-1 renal = system: CAKI-1 renal
# A498 renal = system: A498 renal
# NCI/ADR-RES ovarian = system: NCI/ADR-RES ovarian
# SK-OV-3 ovarian = system: SK-OV-3 ovarian
# SF-268 CNS = system: SF-268 CNS
# BT-549 breast = system: BT-549 breast
# SNB-19 CNS = system: SNB-19 CNS
# A549 NSCLC = system: A549 NSCLC
# SK-MEL-5 melanoma = system: SK-MEL-5 melanoma
# OVCAR-8 ovarian = system: OVCAR-8 ovarian
# OVCAR-5 ovarian = system: OVCAR-5 ovarian
# SR leukemia = system: SR leukemia
# SNB-75 CNS = system: SNB-75 CNS
# HCC-2998 colon = system: HCC-2998 colon
# HCT-116 colon = system: HCT-116 colon
# EKVX NSCLC = system: EKVX NSCLC
# SN12C renal = system: SN12C renal
# HCT-15 colon = system: HCT-15 colon
# HOP-62 NSCLC = system: HOP-62 NSCLC
# HT29 colon = system: HT29 colon
# NCI-H460 lung = system: NCI-H460 lung
# UACC-257 melanoma = system: UACC-257 melanoma
# T-47D breast = system: T-47D breast
# HOP-92 NSCLC = system: HOP-92 NSCLC
# UO-31 renal = system: UO-31 renal
# PC-3 prostate = system: PC-3 prostate
# SW-620 colon = system: SW-620 colon
# NCI-H23 lung = system: NCI-H23 lung
# DU-145 prostate = system: DU-145 prostate
# IGROV1 ovarian = system: IGROV1 ovarian
# COLO 205 colon = system: COLO 205 colon
# U251 CNS = system: U251 CNS
# K-562 leukemia = system: K-562 leukemia
# RXF 393 renal = system: RXF 393 renal
smiles,measurement,setting,value
C#C[C@]1(O)CC[C@H]2[C@@H]3CC=C4c5sc(Nc6cccc(C)n6)nc5CC[C@]4(C)[C@H]3CC[C@@]21C,GI50,SF-295 CNS,329 nM
same,TGI,SF-295 CNS,1360 nM
same,GI50,SK-MEL-28 melanoma,543 nM
same,TGI,SK-MEL-28 melanoma,2280 nM
same,GI50,NCI-H226 lung,2690 nM
same,TGI,NCI-H226 lung,12.1 µM
same,GI50,ACHN renal,1200 nM
same,TGI,ACHN renal,3.55 µM
same,GI50,TK-10 renal,2460 nM
same,TGI,TK-10 renal,7.67 µM
same,GI50,MOLT-4 leukemia,552 nM
same,TGI,MOLT-4 leukemia,3.05 µM
same,GI50,MCF7 breast,1240 nM
same,TGI,MCF7 breast,3.52 µM
same,GI50,MALME-3M melanoma,1400 nM
same,TGI,MALME-3M melanoma,3.36 µM
same,GI50,LOX IMVI melanoma,1390 nM
same,TGI,LOX IMVI melanoma,2790 nM
same,GI50,M14 melanoma,1520 nM
same,TGI,M14 melanoma,3.57 µM
same,GI50,KM12 colon,1850 nM
same,TGI,KM12 colon,5.99 µM
same,GI50,UACC-62 melanoma,1490 nM
same,TGI,UACC-62 melanoma,3.3 µM
same,GI50,OVCAR-4 ovarian,3.02 µM
same,TGI,OVCAR-4 ovarian,16.8 µM
same,GI50,HL-60(TB) leukemia,710 nM
same,TGI,HL-60(TB) leukemia,3.46 µM
same,GI50,CCRF-CEM leukemia,1360 nM
same,TGI,CCRF-CEM leukemia,6.35 µM
same,GI50,MDA-MB-435,2240 nM
same,TGI,MDA-MB-435,6.44 µM
same,GI50,786-0 renal,437 nM
same,TGI,786-0 renal,1960 nM
same,GI50,SF-539 CNS,280 nM
same,TGI,SF-539 CNS,1170 nM
same,GI50,NCI-H522 lung,1660 nM
same,TGI,NCI-H522 lung,3.26 µM
same,GI50,MDA-MB-231 breast,1240 nM
same,TGI,MDA-MB-231 breast,3.38 µM
same,GI50,HS 578T breast,343 nM
same,TGI,HS 578T breast,2020 nM
same,GI50,CAKI-1 renal,1530 nM
same,TGI,CAKI-1 renal,4.34 µM
same,GI50,A498 renal,1280 nM
same,TGI,A498 renal,2620 nM
same,GI50,NCI/ADR-RES ovarian,1820 nM
same,TGI,NCI/ADR-RES ovarian,7.41 µM
same,GI50,SK-OV-3 ovarian,1370 nM
same,TGI,SK-OV-3 ovarian,3.25 µM
same,GI50,SF-268 CNS,2020 nM
same,TGI,SF-268 CNS,7.37 µM
same,GI50,BT-549 breast,1490 nM
same,TGI,BT-549 breast,3.31 µM
same,GI50,SNB-19 CNS,1200 nM
same,TGI,SNB-19 CNS,3.82 µM
same,GI50,A549 NSCLC,1890 nM
same,TGI,A549 NSCLC,8.31 µM
same,GI50,SK-MEL-5 melanoma,1840 nM
same,TGI,SK-MEL-5 melanoma,3.7 µM
same,GI50,OVCAR-8 ovarian,1450 nM
same,TGI,OVCAR-8 ovarian,4.78 µM
same,GI50,OVCAR-5 ovarian,1700 nM
same,TGI,OVCAR-5 ovarian,3.78 µM
same,GI50,SR leukemia,403 nM
same,TGI,SR leukemia,2090 nM
same,GI50,SNB-75 CNS,1090 nM
same,TGI,SNB-75 CNS,8.32 µM
same,GI50,HCC-2998 colon,2190 nM
same,TGI,HCC-2998 colon,5.52 µM
same,GI50,HCT-116 colon,1350 nM
same,TGI,HCT-116 colon,3.04 µM
same,GI50,EKVX NSCLC,1390 nM
same,TGI,EKVX NSCLC,10.1 µM
same,GI50,SN12C renal,1620 nM
same,TGI,SN12C renal,3.2 µM
same,GI50,HCT-15 colon,1130 nM
same,TGI,HCT-15 colon,2710 nM
same,GI50,HOP-62 NSCLC,1330 nM
same,TGI,HOP-62 NSCLC,2930 nM
same,GI50,HT29 colon,1500 nM
same,TGI,HT29 colon,3.17 µM
same,GI50,NCI-H460 lung,1460 nM
same,TGI,NCI-H460 lung,3.04 µM
same,GI50,UACC-257 melanoma,1620 nM
same,TGI,UACC-257 melanoma,3.46 µM
same,GI50,T-47D breast,1980 nM
same,TGI,T-47D breast,6.64 µM
same,GI50,HOP-92 NSCLC,1590 nM
same,TGI,HOP-92 NSCLC,4.15 µM
same,GI50,UO-31 renal,1140 nM
same,TGI,UO-31 renal,2560 nM
same,GI50,PC-3 prostate,979 nM
same,TGI,PC-3 prostate,5.54 µM
same,GI50,SW-620 colon,1560 nM
same,TGI,SW-620 colon,3.09 µM
same,GI50,NCI-H23 lung,1570 nM
same,TGI,NCI-H23 lung,6.03 µM
same,GI50,DU-145 prostate,2800 nM
same,TGI,DU-145 prostate,12 µM
same,GI50,IGROV1 ovarian,2740 nM
same,TGI,IGROV1 ovarian,11.5 µM
same,GI50,COLO 205 colon,1760 nM
same,TGI,COLO 205 colon,3.38 µM
same,GI50,U251 CNS,558 nM
same,TGI,U251 CNS,1930 nM
same,GI50,K-562 leukemia,666 nM
same,TGI,K-562 leukemia,3.1 µM
same,GI50,RXF 393 renal,230 nM
same,TGI,RXF 393 renal,579 nM
